≈ marks a conversion by molar mass, not a printed value. Read-outs that look alike come from different tables or passages of the source. Blank lines part the entries; values can stand above or below the compound they belong to.
How the values were obtained:
[1] = test system: amoxicillin/clarithromycin/metronidazole - susceptible strains of Helicobacter pylori; test: Bacteriostatic activity (MIC) against susceptible strains; format: cell-based
[2] = test system: clarithromycin and/or metronidazole - intermediate or resistant strains of Helicobacter pylori; test: Bacteriostatic activity (MIC) against intermediate or resistant strains; format: cell-based
[3] = in cell culture; cited from earlier work
[4] = Helicobacter pylori, H. pylori strain no 1, read-out: MIC
[5] = Helicobacter pylori, H. pylori strain no 2, read-out: MIC
[6] = Helicobacter pylori, H. pylori strain no 3, read-out: MIC
[7] = Helicobacter pylori, H. pylori strain no 4, read-out: MIC
[8] = Helicobacter pylori, H. pylori strain no 5, read-out: MIC
[9] = Helicobacter pylori, H. pylori strain no 6, read-out: MIC
[10] = Helicobacter pylori, H. pylori strain no 7, read-out: MIC
[11] = Helicobacter pylori, H. pylori strain no 8, read-out: MIC
[12] = Helicobacter pylori, H. pylori strain no 10, read-out: MIC
[13] = Helicobacter pylori, H. pylori strain no 11, read-out: MIC
[14] = Helicobacter pylori, H. pylori strain no 12, read-out: MIC
[15] = Helicobacter pylori, H. pylori strain no 13, read-out: MIC
[16] = Helicobacter pylori, H. pylori strain no 14, read-out: MIC
[17] = Helicobacter pylori, H. pylori strain no 15, read-out: MIC
[18] = Helicobacter pylori, H. pylori strain no 16, read-out: MIC
[19] = Helicobacter pylori, H. pylori strain no 17, read-out: MIC
[20] = Helicobacter pylori, H. pylori strain no 18, read-out: MIC
[21] = Helicobacter pylori, H. pylori strain no 19, read-out: MIC
[22] = Helicobacter pylori, H. pylori strain no 20, read-out: MIC
[23] = Helicobacter pylori, H. pylori strain no 22, read-out: MIC
[24] = Helicobacter pylori, H. pylori strain no 23, read-out: MIC
[25] = Helicobacter pylori, H. pylori strain no 24, read-out: MIC
[26] = Helicobacter pylori, H. pylori strain no 25, read-out: MIC
[27] = Helicobacter pylori, H. pylori strain no 26, read-out: MIC
[28] = Helicobacter pylori, H. pylori strain no 27, read-out: MIC
[29] = Helicobacter pylori, H. pylori strain no 28, read-out: MIC
[30] = Helicobacter pylori, H. pylori strain no 30, read-out: MIC
[31] = Helicobacter pylori, H. pylori strain no 31, read-out: MIC
[32] = Helicobacter pylori, H. pylori strain no 32, read-out: MIC
[33] = Helicobacter pylori, H. pylori strain no 33, read-out: MIC
[34] = Helicobacter pylori, H. pylori strain no 35, read-out: MIC
[35] = Helicobacter pylori, H. pylori strain no 36, read-out: MIC
[36] = Helicobacter pylori, H. pylori strain no 37, read-out: MIC
[37] = Helicobacter pylori, H. pylori strain no 39, read-out: MIC
[38] = Helicobacter pylori, H. pylori strain no 40, read-out: MIC
[39] = Helicobacter pylori, H. pylori strain no 41, read-out: MIC
[40] = Helicobacter pylori, H. pylori strain no 42, read-out: MIC
[41] = Helicobacter pylori, H. pylori strain no 43, read-out: MIC
[42] = Helicobacter pylori, H. pylori strain no 44, read-out: MIC
[43] = Helicobacter pylori, H. pylori strain no 45, read-out: MIC
[44] = Helicobacter pylori, H. pylori strain no 46, read-out: MIC
[45] = Helicobacter pylori, H. pylori strain no 47, read-out: MIC
[46] = Helicobacter pylori, H. pylori strain no 9, read-out: MIC
[47] = Helicobacter pylori, H. pylori strain no 29, read-out: MIC
[48] = Helicobacter pylori, H. pylori strain no 38, read-out: MIC

MIC [1, 4]: 0.06 µg/mL (≈ 0.164 µM)
MIC [1, 5]: 0.06 µg/mL (≈ 0.164 µM)
MIC [1, 6]: 0.06 µg/mL (≈ 0.164 µM)
MIC [1, 7]: 0.06 µg/mL (≈ 0.164 µM)
MIC [1, 8]: 0.06 µg/mL (≈ 0.164 µM)
MIC [1, 9]: 0.06 µg/mL (≈ 0.164 µM)
MIC [1, 10]: 0.06 µg/mL (≈ 0.164 µM)
MIC [1, 11]: 0.06 µg/mL (≈ 0.164 µM)
MIC [1, 12]: 0.06 µg/mL (≈ 0.164 µM)
MIC [1, 13]: 0.06 µg/mL (≈ 0.164 µM)
MIC [1, 14]: 0.06 µg/mL (≈ 0.164 µM)
MIC [1, 15]: 0.06 µg/mL (≈ 0.164 µM)
MIC [1, 16]: 0.06 µg/mL (≈ 0.164 µM)
MIC [1, 17]: 0.06 µg/mL (≈ 0.164 µM)
MIC [1, 18]: 0.06 µg/mL (≈ 0.164 µM)
MIC [1, 19]: 0.06 µg/mL (≈ 0.164 µM)
MIC [1, 20]: 0.06 µg/mL (≈ 0.164 µM)
MIC [1, 21]: 0.06 µg/mL (≈ 0.164 µM)
MIC [1, 22]: 0.06 µg/mL (≈ 0.164 µM)
MIC [1, 23]: 0.06 µg/mL (≈ 0.164 µM)
MIC [1, 24]: 0.06 µg/mL (≈ 0.164 µM)
MIC [1, 25]: 0.06 µg/mL (≈ 0.164 µM)
MIC [1, 26]: 0.06 µg/mL (≈ 0.164 µM)
MIC [1, 27]: 0.06 µg/mL (≈ 0.164 µM)
MIC [1, 28]: 0.06 µg/mL (≈ 0.164 µM)
MIC [1, 29]: 0.06 µg/mL (≈ 0.164 µM)
MIC [1, 30]: 0.06 µg/mL (≈ 0.164 µM)
MIC [1, 31]: 0.06 µg/mL (≈ 0.164 µM)
MIC [1, 32]: 0.06 µg/mL (≈ 0.164 µM)
MIC [2, 33]: 0.06 µg/mL (≈ 0.164 µM)
MIC [2, 34]: 0.06 µg/mL (≈ 0.164 µM)
MIC [2, 35]: 0.06 µg/mL (≈ 0.164 µM)
MIC [2, 36]: 0.06 µg/mL (≈ 0.164 µM)
MIC [2, 37]: 0.06 µg/mL (≈ 0.164 µM)
MIC [2, 38]: 0.06 µg/mL (≈ 0.164 µM)
MIC [2, 39]: 0.06 µg/mL (≈ 0.164 µM)
MIC [2, 40]: 0.06 µg/mL (≈ 0.164 µM)
MIC [2, 41]: 0.06 µg/mL (≈ 0.164 µM)
MIC [2, 42]: 0.06 µg/mL (≈ 0.164 µM)
MIC [2, 43]: 0.06 µg/mL (≈ 0.164 µM)
MIC [2, 44]: 0.06 µg/mL (≈ 0.164 µM)
MIC [2, 45]: 0.06 µg/mL (≈ 0.164 µM)
Structure (SMILES): CC1(C)S[C@@H]2[C@H](NC(=O)[C@H](N)c3ccc(O)cc3)C(=O)N2[C@H]1C(=O)O [Amoxicillin]

Structure (SMILES): CSCCCCCN=C=S [Bertoin]
activity as inducers relative to sulforaphane and sulforaphene [3]: less active

Structure (SMILES): CC[C@H]1OC(=O)[C@H](C)[C@@H](O[C@H]2C[C@@](C)(OC)[C@@H](O)[C@H](C)O2)[C@H](C)[C@@H](O[C@@H]2O[C@H](C)C[C@H](N(C)C)[C@H]2O)[C@](C)(OC)C[C@@H](C)C(=O)[C@H](C)[C@@H](O)[C@]1(C)O [Clarithromycin]
MIC ([1]; H. pylori strain no 2): 0.125 µg/mL (≈ 0.167 µM)
MIC ([1]; H. pylori strain no 28): 0.125 µg/mL (≈ 0.167 µM)
MIC ([1]; Helicobacter pylori): 0.125 µg/mL (≈ 0.167 µM)
MIC [1, 4]: 0.06 µg/mL (≈ 0.0802 µM)
MIC [1, 7]: 0.06 µg/mL (≈ 0.0802 µM)
MIC [1, 8]: 0.06 µg/mL (≈ 0.0802 µM)
MIC [1, 9]: 0.06 µg/mL (≈ 0.0802 µM)
MIC [1, 10]: 0.06 µg/mL (≈ 0.0802 µM)
MIC [1, 11]: 0.06 µg/mL (≈ 0.0802 µM)
MIC [1, 46]: 0.06 µg/mL (≈ 0.0802 µM)
MIC [1, 12]: 0.06 µg/mL (≈ 0.0802 µM)
MIC [1, 13]: 0.06 µg/mL (≈ 0.0802 µM)
MIC [1, 14]: 0.06 µg/mL (≈ 0.0802 µM)
MIC [1, 15]: 0.06 µg/mL (≈ 0.0802 µM)
MIC [1, 16]: 0.06 µg/mL (≈ 0.0802 µM)
MIC [1, 17]: 0.06 µg/mL (≈ 0.0802 µM)
MIC [1, 18]: 0.06 µg/mL (≈ 0.0802 µM)
MIC [1, 19]: 0.06 µg/mL (≈ 0.0802 µM)
MIC [1, 20]: 0.06 µg/mL (≈ 0.0802 µM)
MIC [1, 21]: 0.06 µg/mL (≈ 0.0802 µM)
MIC [1, 22]: 0.06 µg/mL (≈ 0.0802 µM)
MIC ([1]; Helicobacter pylori, H. pylori strain no 21, read-out: MIC): 0.06 µg/mL (≈ 0.0802 µM)
MIC [1, 23]: 2 µg/mL (≈ 2.67 µM)
MIC [1, 24]: 0.06 µg/mL (≈ 0.0802 µM)
MIC [1, 25]: 0.06 µg/mL (≈ 0.0802 µM)
MIC [1, 26]: 0.06 µg/mL (≈ 0.0802 µM)
MIC [1, 27]: 0.06 µg/mL (≈ 0.0802 µM)
MIC [1, 28]: 0.06 µg/mL (≈ 0.0802 µM)
MIC [1, 47]: 0.06 µg/mL (≈ 0.0802 µM)
MIC [1, 30]: 0.06 µg/mL (≈ 0.0802 µM)
MIC [1, 31]: 0.06 µg/mL (≈ 0.0802 µM)
MIC [1, 32]: 0.06 µg/mL (≈ 0.0802 µM)
MIC ([2]; H. pylori strain no 34): 0.125 µg/mL (≈ 0.167 µM)
MIC ([2]; Helicobacter pylori): 0.125 µg/mL (≈ 0.167 µM)
MIC [2, 33]: 0.06 µg/mL (≈ 0.0802 µM)
MIC [2, 34]: 0.06 µg/mL (≈ 0.0802 µM)
MIC [2, 35]: 0.06 µg/mL (≈ 0.0802 µM)
MIC [2, 36]: 0.06 µg/mL (≈ 0.0802 µM)
MIC [2, 48]: 0.5 µg/mL (≈ 0.668 µM)
MIC [2, 38]: 0.06 µg/mL (≈ 0.0802 µM)
MIC [2, 39]: 4 µg/mL (≈ 5.35 µM)
MIC [2, 40]: 16 µg/mL (≈ 21.4 µM)
MIC [2, 41]: 16 µg/mL (≈ 21.4 µM)
MIC [2, 42]: 16 µg/mL (≈ 21.4 µM)
MIC [2, 43]: 8 µg/mL (≈ 10.7 µM)
MIC [2, 44]: 16 µg/mL (≈ 21.4 µM)
MIC [2, 45]: 16 µg/mL (≈ 21.4 µM)

MIC [1, 4]: 1 µg/mL (≈ 5.84 µM)
MIC [1, 5]: 1 µg/mL (≈ 5.84 µM)
MIC [1, 6]: 1 µg/mL (≈ 5.84 µM)
MIC [1, 7]: 1 µg/mL (≈ 5.84 µM)
MIC [1, 8]: 4 µg/mL (≈ 23.4 µM)
MIC [1, 9]: 0.06 µg/mL (≈ 0.351 µM)
MIC [1, 10]: 0.06 µg/mL (≈ 0.351 µM)
MIC [1, 11]: 0.5 µg/mL (≈ 2.92 µM)
MIC [1, 46]: 1 µg/mL (≈ 5.84 µM)
MIC [1, 12]: 0.5 µg/mL (≈ 2.92 µM)
MIC [1, 13]: 0.25 µg/mL (≈ 1.46 µM)
MIC [1, 14]: 1 µg/mL (≈ 5.84 µM)
MIC [1, 15]: 1 µg/mL (≈ 5.84 µM)
MIC [1, 16]: 0.06 µg/mL (≈ 0.351 µM)
MIC [1, 17]: 0.06 µg/mL (≈ 0.351 µM)
MIC [1, 18]: 0.5 µg/mL (≈ 2.92 µM)
MIC [1, 19]: 1 µg/mL (≈ 5.84 µM)
MIC [1, 20]: 1 µg/mL (≈ 5.84 µM)
MIC [1, 24]: 0.06 µg/mL (≈ 0.351 µM)
MIC [1, 25]: 0.5 µg/mL (≈ 2.92 µM)
MIC [1, 26]: 1 µg/mL (≈ 5.84 µM)
MIC [1, 27]: 1 µg/mL (≈ 5.84 µM)
MIC [1, 28]: 0.06 µg/mL (≈ 0.351 µM)
MIC [1, 29]: 0.5 µg/mL (≈ 2.92 µM)
MIC [1, 47]: 1 µg/mL (≈ 5.84 µM)
MIC [1, 30]: 0.5 µg/mL (≈ 2.92 µM)
MIC [1, 31]: 0.25 µg/mL (≈ 1.46 µM)
MIC [1, 32]: 1 µg/mL (≈ 5.84 µM)
MIC [2, 33]: 32 µg/mL (≈ 187 µM)
MIC ([2]; Helicobacter pylori, H. pylori strain no 34, read-out: MIC): 256 µg/mL (≈ 1500 µM)
MIC [2, 34]: 64 µg/mL (≈ 374 µM)
MIC [2, 35]: 64 µg/mL (≈ 374 µM)
MIC [2, 36]: 64 µg/mL (≈ 374 µM)
MIC [2, 48]: 64 µg/mL (≈ 374 µM)
MIC [2, 37]: 256 µg/mL (≈ 1500 µM)
MIC [2, 38]: 64 µg/mL (≈ 374 µM)
MIC [2, 39]: 16 µg/mL (≈ 93.5 µM)
MIC [2, 40]: 1 µg/mL (≈ 5.84 µM)
MIC [2, 41]: 1 µg/mL (≈ 5.84 µM)
MIC [2, 42]: 0.5 µg/mL (≈ 2.92 µM)
MIC [2, 43]: 2 µg/mL (≈ 11.7 µM)
MIC [2, 44]: 32 µg/mL (≈ 187 µM)
MIC [2, 45]: 64 µg/mL (≈ 374 µM)
Structure (SMILES): Cc1ncc([N+](=O)[O-])n1CCO [Metronidazole]

Source: patent US6737441B2, “Treatment of helicobacter with isothiocyanates” (priority 2000, dated 2004)
